# Assays:
# [1] = system: WHO Grade IV malignant glioma; experiment: Progression free survival (PFS) and overall survival (OS), MRZ ± BEV in recurrent grade IV malignant glioma patients; format: in vivo, human
# Method: Tumor response was measured every other cycle by RANO criteria.
# The drugs were infused on 28-Day Cycles. Tumor response is assessed every other cycle by RANO criteria.
# Tumor response, including PD activity, progression-free survival (PFS), and overall survival (OS) will be assessed. Tumor response will be assessed by the Investigators using RANO 2010 criteria. […] Endpoints of response based on tumor assessments will be calculated for subjects who received at least 3 doses of MRZ and had at least 1 post-dose tumor evaluation.
# Tumor response including PD, progression-free survival (PFS), and overall survival (OS) will be assessed by the Investigators using RANO 2010 criteria.
# [2] = Marizomib blood pharmacokinetics (Part 1 Phase 1); details: for AUC(0-t) / Cmax / Tmax / Vd / half-life: human, whole blood, intravenous
# Method: Blood samples will be taken for peak and trough measurements, pre-dose and immediately prior to (end of infusion) EOI, on Cycle 1 Day 1. On Cycle 1 Day 15 full PK sampling will be done: pre-dose, immediately prior to EOI and then 2, 5, 15, 30, 45, 60, 90 and 120 minutes post infusion. The following PK parameters will be estimated by non-compartmental analysis:
# Non-compartmental analyses will be performed. […] Blood concentrations and computed PK parameters for MRZ will be listed and summarized by cohort (mean, geometric mean, standard deviation, coefficient of variation, minimum, maximum and number of observations).
# Blood should be drawn from the contralateral arm to the infusion site and using an indwelling catheter to avoid multiple needle sticks is recommended. Sample collection time should be recorded on the tube label and Case Report Form (CRF) as day: hour: minute. Nominal time of blood collection are given as “time points”; it is critical that an accurately collected actual time of the sample is written on the CRF and on the blood tubes (date entered as dd:mm:yyyy; time entered using a 24-hour clock, hh:mm). For MRZ samples will be obtained before treatment and just prior to end of infusion on Cycle 1 Day 1. On Cycle 1 Day 15, MRZ blood samples will be obtained before treatment, just prior to end of infusion, and 2, 5, 15, 30, 45, 60, 90, and 120 minutes after the infusion. Every effort should be made to collect samples at the prescribed times, but deviations up to 10% of the time point are allowed. Additional samples may be collected if the subject experiences a potentially drug-related SAE. After blood collection, neutralizing solution must be added. Use Sponsor-provided PK kits. Process, store and ship samples per instructions in Study Reference Manual.
# Non-compartmental analyses will be performed.
structure (smiles),measurement,setting,value
"C[C@@]12OC(=O)[C@]1([C@@H](O)[C@@H]1C=CCCC1)NC(=O)[C@@H]2CCCl [MRZ, marizomib]",PFS Median,[1]; All Patients,1.8
same,6 mo Overall Survival,[1]; All Pts,64%
same,9 mo Overall Survival,[1]; All Pts,64%
same,6 mo Overall Survival,[1]; Methylated MGMT Promoter,83%
same,9 mo Overall Survival,[1]; Methylated MGMT Promoter,83%
same,PFS Median,[1]; Methylated MGMT Promoter,1.7
same,OS 6 mo,"[1]; Monotherapy, Methylated (7)",83%
same,OS 9 mo,"[1]; Monotherapy, Methylated (7)",83%
same,OS Median,"[1]; Monotherapy, Methylated (7)",Undefined
same,PFS 3 mo,"[1]; Monotherapy, Methylated (7)",40%
same,PFS Median,"[1]; Monotherapy, Methylated (7)",1.7 months
same,OS 6 mo,"[1]; Monotherapy, Unmethylated (18)",65%
same,OS 9 mo,"[1]; Monotherapy, Unmethylated (18)",65%
same,OS Median,"[1]; Monotherapy, Unmethylated (18)",Undefined
same,PFS 3 mo,"[1]; Monotherapy, Unmethylated (18)",20%
same,PFS Median,"[1]; Monotherapy, Unmethylated (18)",1.9 months
same,median overall survival,"[1]; Part II monotherapy, 16 events, median follow-up 9.2 months",11.4 months
same,OS 6 mo %,"[1]; Part II, N = 30, 14 censored",59%
same,OS 9 mo %,"[1]; Part II, N = 30, 14 censored",54%
same,OS 12 mo %,"[1]; Part II, N = 30, 14 censored",17%
same,6 mo Overall Survival,[1]; Unmethylated MGMT Promoter,65%
same,9 mo Overall Survival,[1]; Unmethylated MGMT Promoter,65%
same,PFS Median,[1]; Unmethylated MGMT Promoter,1.9
same,CLobs,"[2]; MRZ 0.7 mg/m^2, C1D8",272 ± 166 (3) L/hr
same,CLobs,"[2]; MRZ 0.8 mg/m^2, C1D8",304 ± 85.0 (3) L/hr
same,pharmacokinetic parameters,[2]; co-administration with bevacizumab,consistent with published parameters and not affected by co-administration
same,AUC(0-t),[2]; 0.7 mg/m2,3.22 ng·h/mL
same,Cmax,[2]; 0.7 mg/m2,64.9 ± 1.73 ng/mL
same,Tmax,[2]; 0.7 mg/m2,21.3 min
same,Vd,[2]; 0.7 mg/m2,48.3 ± 16.1 L
same,half-life,[2]; 0.7 mg/m2,16 ± 8.08 min
same,AUC(0-t),[2]; 0.8 mg/m2,6.53 ng·h/mL
same,Cmax,[2]; 0.8 mg/m2,26.5 ± 7.92 ng/mL
same,Tmax,[2]; 0.8 mg/m2,8 min
same,Vd,[2]; 0.8 mg/m2,55 ± 19.7 L
same,half-life,[2]; 0.8 mg/m2,7.27 ± 0.423 min
same,Tmax,[2]; […]2,15.5 min
same,Vd,[2]; […]2,54.4 ± 10.6 L
same,half-life,[2]; […]2,8.2 ± 0.8 min

# — US20200085789A1, “USE OF A PROTEASOME INHIBITOR FOR THE TREATMENT OF CENTRAL NERVOUS SYSTEM (CNS) CANCERS” (Celgene International II Sàrl, priority 2017, published 2020)
